Test results as given in patent publication EP2687213B1, “Solid forms comprising (+)-2-[1-(3-ethoxy-4-methoxyphenyl)-2-methylsulfonylethyl]-4-acetylaminoisoindoline-1,3-dione, compositions thereof, and uses thereof” (CELGENE CORPORATION, priority 2008, dated 2009).

Experiments:
[1] = molecular target: PDE3 from human platelets (Homo sapiens, UniProt Q14432); experiment: PDE3 enzyme assay; type: biochemical; settings: from PDE inhibition data of Table 1
[2] = molecular target: PDE5 from human platelets (Homo sapiens, UniProt O76074); experiment: PDE5 enzyme assay; type: biochemical; settings: from PDE inhibition data of Table 1
[3] = Equilibrium aqueous solubility in pH 7.4 buffer; type: physicochemical
Method: Equilibrium solubilities were measured in pH 7.4 aqueous buffer. The pH 7.4 buffer was prepared by adjusting the pH of a 0.07 M NaH2PO4 solution to 7.4 with 10 N NaOH. The ionic strength of the solution was 0.15. At least 1 mg of powder was combined with 1 ml of buffer to make >1 mg/ml mixture. These samples were shaken for >2 hours and left to stand overnight at room temperature. The samples were then filtered through a 0.45-µm Nylon syringe filter that was first saturated with the sample. The filtrate was sampled twice, consecutively. The filtrate was assayed by HPLC against standards prepared in 50% methanol.

[4] = test system: LPS-induced pulmonary neutrophilia; experiment: LPS-induced lung neutrophilia conscious ferret model; type: in vivo; settings: threshold emetic dose divided by ED50 for pulmonary neutrophilia
Description: The conscious ferret model has been used to investigate anti-inflammatory, emetic and behavioral effects of PDE4 inhibitors when administered by the oral (p.o.) route. From these experiments, a therapeutic index (TI) for each PDE4 inhibitor may be determined. The TI has been calculated by dividing the threshold dose for causing emetic episodes and behavioral changes by the anti-inflammatory dose (dose that causes 50% inhibition of the LPS-induced neutrophilia). […]
Thirty minutes after p.o. dosing with compound or vehicle control, the ferrets were placed into sealed Perspex containers and exposed to an aerosol of LPS (100 µg/ml) for 10 minutes. […] Observation continued for a period of at least 2.5 hours post p.o. dosing and emetic episodes and behavioral changes were recorded. […]
The bronchoalveolar lavage (BAL) samples were centrifuged at 1,500 rpm for 5 minutes. […] From this, the total number of neutrophils in the BAL was determined.
• 1. % Inhibition of LPS-induced pulmonary neutrophilia. • 2. Emetic episodes - the number of vomits and retches were counted. • 3. […] Any behavioral changes were semi-quantified by applying a severity rating (mild, moderate or severe). • 4. The TI was calculated as the highest dose found to not cause emetic episodes divided by the lowest dose found to inhibit pulmonary neutrophilia by 50% or more.

conscious ferret = experiment: Emesis and behavioral changes in conscious ferrets after oral dosing; type: in vivo; settings: for Ataxia / Backward walking / Flattened posture / Lip licking / Mouth clawing / Panting / Retches / Salivation / Vomits: oral, (animals that responded/group)
Method: PDE4 inhibitors were administered orally (p.o.), at doses initially of […], but subsequently up to 30 mg/kg in order to establish whether the TI was 10 or higher, and/or at lower doses to establish the minimum dose to cause 50% inhibition of neutrophilia. Ferrets were fasted overnight but allowed free access to water. The animals were orally dosed with vehicle or PDE4 inhibitor using a 15 cm dosing needle that was passed down the back of the throat into the oesophagus. After dosing, the animals were returned to holding cages fitted with Perspex doors to allow observation, and given free access to water. After dosing, the animals were constantly observed and any emesis or behavioral changes were recorded. The animals were allowed access to food 60 to 90 minutes after p.o. dosing.
Thirty minutes after p.o. dosing with compound or vehicle control, the ferrets were placed into sealed Perspex containers and exposed to an aerosol of LPS (100 µg/ml) for 10 minutes. Aerosols of LPS were generated by a nebulizer (DeVilbiss, USA) and this was directed into the Perspex exposure chamber. Following a 10 minute exposure period, the animals were returned to the holding cages and allowed free access to water, and at a later stage, food. Observation continued for a period of at least 2.5 hours post p.o. dosing and emetic episodes and behavioral changes were recorded.
• 1. % Inhibition of LPS-induced pulmonary neutrophilia. • 2. Emetic episodes - the number of vomits and retches were counted. • 3. Behavioral changes - the following behavioral effects were noted: salivation, panting, mouth clawing, flattened posture, ataxia, arched back and backward walking. Any behavioral changes were semi-quantified by applying a severity rating (mild, moderate or severe). • 4. The TI was calculated as the highest dose found to not cause emetic episodes divided by the lowest dose found to inhibit pulmonary neutrophilia by 50% or more.
Numbers in parentheses refer to the number of animals that responded. The numbers of animals in each group range from 4 to 22.

[5] = test system: subjects with moderate to severe plaque-type psoriasis; experiment: Phase 2 randomized double-blind placebo-controlled study in moderate to severe plaque-type psoriasis; type: in vivo, human
Method: This phase 2, multicenter, randomized, double-blind, placebo-controlled, parallel-group, dose-comparison study evaluated the efficacy and safety of Compound A in subjects with moderate to severe plaque-type psoriasis who were candidates for systemic therapy.
This study included a 12-week treatment phase followed by a 4-week observational follow-up phase. A total of 260 subjects were randomized to receive Compound A 20 mg BID, Compound A 20 mg QD, or placebo for 12 weeks. The primary endpoint for this study was the proportion of subjects treated with Compound A who achieved a 75% reduction in Psoriasis Area and Severity Index score ("PASI-75") at week 12/last treatment in reference to the baseline visit. Last treatment is defined as the last PASI assessment completed during the 12-week treatment phase.

Sequence of PDE3 from human platelets (Q14432 whole entry): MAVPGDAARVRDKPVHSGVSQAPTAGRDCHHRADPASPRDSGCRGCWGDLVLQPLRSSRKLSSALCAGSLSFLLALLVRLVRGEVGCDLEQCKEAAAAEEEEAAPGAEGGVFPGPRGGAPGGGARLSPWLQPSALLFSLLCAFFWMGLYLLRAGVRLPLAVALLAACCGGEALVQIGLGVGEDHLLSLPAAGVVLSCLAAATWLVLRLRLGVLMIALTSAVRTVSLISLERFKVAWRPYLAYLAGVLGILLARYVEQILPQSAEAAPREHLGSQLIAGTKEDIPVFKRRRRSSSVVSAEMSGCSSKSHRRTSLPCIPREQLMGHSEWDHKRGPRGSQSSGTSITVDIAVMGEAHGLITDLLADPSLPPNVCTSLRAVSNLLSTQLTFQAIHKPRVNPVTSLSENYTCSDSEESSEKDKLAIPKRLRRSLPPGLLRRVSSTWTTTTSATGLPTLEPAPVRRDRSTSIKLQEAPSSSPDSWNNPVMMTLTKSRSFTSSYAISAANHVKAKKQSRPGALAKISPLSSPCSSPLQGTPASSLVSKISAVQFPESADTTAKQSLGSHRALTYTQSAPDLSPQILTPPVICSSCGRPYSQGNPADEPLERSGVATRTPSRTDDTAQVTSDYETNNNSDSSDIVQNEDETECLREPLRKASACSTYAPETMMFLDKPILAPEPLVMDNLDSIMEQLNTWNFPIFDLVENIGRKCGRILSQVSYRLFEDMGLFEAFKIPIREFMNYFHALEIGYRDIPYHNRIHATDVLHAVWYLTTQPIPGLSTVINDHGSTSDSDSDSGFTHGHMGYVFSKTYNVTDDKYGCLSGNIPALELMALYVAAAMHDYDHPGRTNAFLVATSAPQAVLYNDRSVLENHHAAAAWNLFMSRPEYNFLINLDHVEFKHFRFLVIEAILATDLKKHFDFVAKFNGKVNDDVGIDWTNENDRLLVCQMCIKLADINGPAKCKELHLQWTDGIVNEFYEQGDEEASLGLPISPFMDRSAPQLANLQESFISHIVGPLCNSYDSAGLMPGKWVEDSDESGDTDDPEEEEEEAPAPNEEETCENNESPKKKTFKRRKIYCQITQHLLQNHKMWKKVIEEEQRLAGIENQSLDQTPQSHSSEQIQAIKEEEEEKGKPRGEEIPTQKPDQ

Which results are given for `CCOc1cc(C(CS(C)(=O)=O)N2C(=O)c3cccc(NC(C)=O)c3C2=O)ccc1OC` (single isomer, unassigned; (+)) [Compound A, (+)-2-[1-(3-ethoxy-4-methoxyphenyl)-2-methylsulfonylethyl]-4-acetylaminoisoindoline-1,3-dione]?
PDE Specificity Ratio PDE4/PDE3 [1]: >1200 fold; PDE Specificity Ratio PDE4/PDE5 [2]: >30000 fold; aqueous solubility greater than the racemic mixture [3]: 3.5 fold; Therapeutic index [4]: 12; emetic episodes (conscious ferret; 10 mg/kg p.o., in 2/6 ferrets): some retching but no frank emesis; emesis (conscious ferret; 30 mg/kg p.o. (highest dose tested), in 3/4 animals): moderate to marked emesis; behavioral changes (flattened posture, lip licking and backward walking), severity (conscious ferret; 0.1-3 mg/kg, p.o.): mild; emetic episodes (retching and vomiting) (conscious ferret; 0.1-3 mg/kg, p.o.): no emetic episodes; Ataxia (conscious ferret; 0.1 mg/kg): None; Backward walking (conscious ferret; 0.1 mg/kg): Mild (3/5); Flattened posture (conscious ferret; 0.1 mg/kg): Mild (2/5); Lip licking (conscious ferret; 0.1 mg/kg): Mild (4/5); Mouth clawing (conscious ferret; 0.1 mg/kg): None; Panting (conscious ferret; 0.1 mg/kg): None; Retches (conscious ferret; 0.1 mg/kg): None; Salivation (conscious ferret; 0.1 mg/kg): None; Vomits (conscious ferret; 0.1 mg/kg): None; Ataxia (conscious ferret; 0.3 mg/kg): None; Backward walking (conscious ferret; 0.3 mg/kg): Mild (4/6); Flattened posture (conscious ferret; 0.3 mg/kg): Mild (2/6); Lip licking (conscious ferret; 0.3 mg/kg): Mild (3/6); Mouth clawing (conscious ferret; 0.3 mg/kg): None; Panting (conscious ferret; 0.3 mg/kg): None; Retches (conscious ferret; 0.3 mg/kg): None; Salivation (conscious ferret; 0.3 mg/kg): None; Vomits (conscious ferret; 0.3 mg/kg): None; Ataxia (conscious ferret; 1.0 mg/kg): None; Backward walking (conscious ferret; 1.0 mg/kg): Mild (4/6); Flattened posture (conscious ferret; 1.0 mg/kg): Mild (2/6); Lip licking (conscious ferret; 1.0 mg/kg): Mild (6/6); Mouth clawing (conscious ferret; 1.0 mg/kg): None; Panting (conscious ferret; 1.0 mg/kg): None; Retches (conscious ferret; 1.0 mg/kg): None; Salivation (conscious ferret; 1.0 mg/kg): None; Vomits (conscious ferret; 1.0 mg/kg): None; Ataxia (conscious ferret; 3.0 mg/kg): None; Backward walking (conscious ferret; 3.0 mg/kg): Moderate (5/8); Flattened posture (conscious ferret; 3.0 mg/kg): Marked (7/8); Lip licking (conscious ferret; 3.0 mg/kg): Mild (2/8); Mouth clawing (conscious ferret; 3.0 mg/kg): Mild (1/8); Panting (conscious ferret; 3.0 mg/kg): None; Retches (conscious ferret; 3.0 mg/kg): None; Salivation (conscious ferret; 3.0 mg/kg): None; Vomits (conscious ferret; 3.0 mg/kg): None; Ataxia (conscious ferret; 10 mg/kg): None; Backward walking (conscious ferret; 10 mg/kg): Marked (6/6); Flattened posture (conscious ferret; 10 mg/kg): Marked (6/6); Lip licking (conscious ferret; 10 mg/kg): Moderate (5/6); Mouth clawing (conscious ferret; 10 mg/kg): Mild (1/6); Panting (conscious ferret; 10 mg/kg): None; Retches (conscious ferret; 10 mg/kg): Mild (2/6); Salivation (conscious ferret; 10 mg/kg): Mild (1/6); Vomits (conscious ferret; 10 mg/kg): None; Ataxia (conscious ferret; 30 mg/kg): Mild (3/4); Backward walking (conscious ferret; 30 mg/kg): Mild (2/4); Flattened posture (conscious ferret; 30 mg/kg): Marked (4/4); Lip licking (conscious ferret; 30 mg/kg): Moderate (4/4); Mouth clawing (conscious ferret; 30 mg/kg): Marked (4/4); Panting (conscious ferret; 30 mg/kg): Mild (1/4); Retches (conscious ferret; 30 mg/kg): Marked (3/4); Salivation (conscious ferret; 30 mg/kg): Moderate (3/4); Vomits (conscious ferret; 30 mg/kg): Moderate (3/4); psoriasis flare during the observational follow-up period ([5]; 20 mg BID group, 4-week follow-up): No subjects; study drug-related serious adverse events ([5]; 20 mg BID or 20 mg QD, 12 weeks): No study drug-related serious adverse events were reported; tolerability and safety (overall conclusion) ([5]; 12 weeks of treatment): well tolerated and safe
